Reference: patent JP2013241470A, “ペプチド含有組成物” (Kikkoman Corp, priority 2013, dated 2013)

Biological target: T1, ACE (angiotensin converting enzyme) (アンジオテンシン変換酵素) (Oryctolagus cuniculus, UniProt P12822)
T1 construct: 0.3U/ml ACE(ウサギ肺由来、シグマ製); purchased Sigma (シグマ); host or cells: rabbit lung tissue
T1 sequence (P12822 34-1310): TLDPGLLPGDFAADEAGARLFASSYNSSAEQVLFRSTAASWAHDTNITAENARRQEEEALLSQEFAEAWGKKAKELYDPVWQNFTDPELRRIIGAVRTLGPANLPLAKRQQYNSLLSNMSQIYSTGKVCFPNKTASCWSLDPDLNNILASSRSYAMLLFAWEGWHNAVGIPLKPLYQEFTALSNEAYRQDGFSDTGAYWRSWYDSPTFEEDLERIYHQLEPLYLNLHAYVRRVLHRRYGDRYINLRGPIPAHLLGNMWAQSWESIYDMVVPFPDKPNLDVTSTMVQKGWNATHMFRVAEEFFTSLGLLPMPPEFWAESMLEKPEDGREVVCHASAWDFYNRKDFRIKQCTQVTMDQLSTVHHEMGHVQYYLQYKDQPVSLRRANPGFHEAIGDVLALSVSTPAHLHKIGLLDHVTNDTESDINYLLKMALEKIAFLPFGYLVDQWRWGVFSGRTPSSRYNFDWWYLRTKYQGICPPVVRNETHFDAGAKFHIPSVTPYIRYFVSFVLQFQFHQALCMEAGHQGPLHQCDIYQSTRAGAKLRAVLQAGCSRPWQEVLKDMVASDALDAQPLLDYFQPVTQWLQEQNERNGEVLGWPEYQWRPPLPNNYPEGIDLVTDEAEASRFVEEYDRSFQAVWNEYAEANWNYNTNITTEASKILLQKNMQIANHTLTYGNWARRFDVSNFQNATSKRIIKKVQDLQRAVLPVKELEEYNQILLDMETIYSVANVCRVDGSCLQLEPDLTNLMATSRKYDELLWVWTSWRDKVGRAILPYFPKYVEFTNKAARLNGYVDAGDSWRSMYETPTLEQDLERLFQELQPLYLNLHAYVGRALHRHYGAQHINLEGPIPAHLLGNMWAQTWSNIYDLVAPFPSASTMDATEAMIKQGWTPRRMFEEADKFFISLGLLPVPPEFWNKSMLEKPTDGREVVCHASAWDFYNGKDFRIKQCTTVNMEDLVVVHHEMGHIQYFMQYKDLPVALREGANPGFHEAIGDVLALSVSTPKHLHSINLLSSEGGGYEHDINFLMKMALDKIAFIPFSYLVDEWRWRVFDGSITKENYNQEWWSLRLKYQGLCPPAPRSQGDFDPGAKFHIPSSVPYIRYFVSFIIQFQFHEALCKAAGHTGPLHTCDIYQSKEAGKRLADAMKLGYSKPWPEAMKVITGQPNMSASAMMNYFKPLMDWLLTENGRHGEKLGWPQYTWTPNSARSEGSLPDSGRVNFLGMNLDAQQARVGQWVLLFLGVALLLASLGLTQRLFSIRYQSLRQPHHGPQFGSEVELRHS
Assay: ACE inhibitory activity (modified Cushman method, Hippuryl-His-Leu substrate)
Format: biochemical, rabbit

Tyr−Thr was tested, and the ACE inhibitory activity (chemically synthesised peptide, compared with known soybean-derived ACE inhibitory peptides (Table 1, not visible), ACE from rabbit lung, 37 °C, 30 min, pH 8.3) was “既知のペプチドと比較して充分に強い活性を有している” and the ACE inhibitory activity (chromatographic fractions during isolation from composition 1 (組成物1)) was “矢印で示したピークにのみ活性が見られた”.
